Laboratory results reported in patent US20090275503A1, “DIASTEREOMERIC PEPTIDES FOR MODULATING T CELL IMMUNITY” (Yeda Research and Developent Co., Ltd. at the Weizman …, priority 2005, published 2009).
Non-standard residues stand in square brackets, D forms with d. No end group written: not given here.

Test system: TCR
Assay: Fluorescence microscopy: co-localization and fluorescence energy transfer with TCR on activated A2b T cells
Assay type: binding, rat
Protocol: Activated A2b T cells (van Eden et al., 1988) (10^5 cells/sample) were incubated in 100 μl of PBS containing Para-formaldehyde 4% for 15 min on ice. The samples were then washed with cold PBS and centrifuged for 7 min at 1100 rpm. PBS containing BSA 1% was then added at room temperature to prevent non-specific binding. After 30 min FITC-labeled antibody against TCR was added at dilution of 1:100 and incubated for 2.5 hr. For co-localization of TCR with the peptide, Rhodamine 2D-CP was added at a final concentration of 1 μM (stock in DMSO) and incubated for 5 min. Sample were then washed once with PBS and loaded on a microscope slide.
The cells were then observed under a fluorescent confocal microscope. […] Fluorescence data was collected from 505-525 nm. […] Fluorescence data was collected from 560 nm and up.
Fluorescence energy transfer between the FITC (donor) and rhodamine (acceptor) was detected as an increase in FITC fluorescence in an area where the rhodamine probe was bleached. […] To verify that the increase in FITC fluorescence is not due to auto fluorescence, bleaching was performed using the 488 nm laser first and only then at 543 nm. […]
To confirm these co-localization results, the inventors performed fluorescence energy transfer experiments between Rhodamine 2D-CP and αTCR-FITC. […] To rule out auto-fluorescence as a source of increased signal in the […] range, two controls were used. […]

In the case of “GLRILLLKV [2D-CP] (GL[dR]ILLL[dK]V-NH2; also: rhodamine label, position not given here) [CP diastereomer]”, the “Co-localization with the TCR on the T-cell membrane” value (rhodamine-labeled peptide 1 μM, αTCR-FITC, activated A2b T cells) is reported as “co-localizes with the TCR” and the “Fluorescence energy transfer between rhodamine peptide and αTCR-FITC after bleaching at 543 nm” value (rhodamine-labeled peptide, point bleach 6 sec) is reported as “significant increase in the fluorescence of the αTCR-FITC”.
